Tests used:
Assay type in all cases: in vivo, human
[1] = tested on: pigmentary retinal degeneration; experiment: Example 45: pigmentary retinal degeneration; details: person; 60 mg/l included in cyclodextrin, 1 drop (50 μl) twice a day for 3 months
[2] = tested on: primary open angle glaucoma; experiment: Example 56: primary open angle glaucoma; details: person; 10 mg/l in 2-hydroxypropyl-β-cyclodextrin and γ-cyclodextrin, 1 drop (50 μl) twice a day for a half year
Description: It can be confirmed that administration of raloxifen with eye drops is effective for the treatment of primary open angle glaucoma.

[3] = tested on: corneal erosion (KSD); experiment: Example 36: corneal erosion; details: person; cyclodextrin-included eye drops of Example 32(1), 1 drop (50 μl) twice a day for 3 days
[4] = tested on: Posner-Schlossmans' Syndrome (glaucoma); experiment: Example 40: Posner-Schlossmans' Syndrome; details: thereafter 100 mg/l eye drops, 1 drop (50 μl) once a day for 3 months
Protocol: Thereafter, 1 drop (50 μl) of eye drops containing trans-resveratrol (100 mg/l) included in cyclodextrin prepared in Example 32(1) was administered once a day for 3 months, then no attack occurred for 3 months or more.

[5] = tested on: central retinal vein occlusion; experiment: Example 57: central retinal vein occlusion; details: person; 100 mg/l, 1 drop (50 μl) twice a day for 112 days
Description: It can be confirmed that administration of trans-resveratrol with eye drops is effective for the treatment of central retinal vein occlusion.

[6] = tested on: open-angle glaucoma; experiment: Example 39: open-angle glaucoma
Description: It can be confirmed that it is effective for treatment of high tension glaucoma to lower intraocular pressure.

[7] = tested on: myopia; experiment: Example 37: myopia; details: 21 days; before 0.9
[8] = tested on: cataract; experiment: Example 38: cataract; details: 49 days
[9] = tested on: open-angle glaucoma; experiment: Example 41: open-angle glaucoma; details: person; 100 mg/l, 1 drop (50 μl) once a day for 14 days
Description: It can be confirmed that administration of trans-resveratrol to eye is effective for treatment of high tension glaucoma.

[10] = tested on: cataract; experiment: Example 62: cataract; details: person, right eye; 100 mg/l, 1 drop (50 μl) twice a day for 67 days
[11] = tested on: dry eye and ischemic optic neuropathy; experiment: Example 61: dry eye and ischemic optic neuropathy
Description: It can be confirmed that administration of trans-resveratrol is effective for the treatment of dry eye and ischemic optic neuropathy.

[12] = tested on: glaucoma; experiment: Example 58: glaucoma; details: person; 100 mg/l, 1 drop (50 μl) twice a day for 3 months
Description: It can be confirmed that administration of trans-resveratrol with eye drops is effective for the treatment of glaucoma.

[13] = tested on: normal tension glaucoma; experiment: Example 42: normal tension glaucoma; details: person; 100 mg/l, 1 drop (50 μl) once a day for 33 days
Description: It can be confirmed that administration of trans-resveratrol to eyes is effective for treatment of normal tension glaucoma.

[14] = tested on: iridocyclitis; experiment: Example 60: iridocyclitis; details: person, right eye; 100 mg/l, 1 drop (50 μl) twice a day for 10 days
Description: It can be confirmed that administration of trans-resveratrol is effective for the treatment of iridocyclitis.

SMILES: O=C(c1ccc(OCCN2CCCCC2)cc1)c1c(-c2ccc(O)cc2)sc2cc(O)ccc12 [raloxifene]
- visual field [1]: visual field was improved
- visual fields by OCTOPUS 1-2-3 static perimeter [2]: the visual fields were improved

SMILES: Oc1ccc(/C=C/c2cc(O)cc(O)c2)cc1 [trans-resveratrol]
- corneal erosion symptom [3]: the symptom was lightened
- period without attack [4]: ≥ 3 months
- chorioretinal hemorrhage, left eye [5]: chorioretinal hemorrhage was disappeared
- intraocular pressure ToS ([6]; 98 days, before 22): 13 mmHg
- intraocular pressure ToD ([6]; person, 100 mg/l, 1 drop (50 μl) twice a day for 98 days, before 21): 14 mmHG
- visual acuity Vs [7]: 1.2
- cataract opacity, slit lamp microscope [8]: cataract opacity was lightened
- corrected visual acuity Vs ([8]; before 1.2): 1.5
- visual field, left eye [9]: visual field was improved
- opacity of cataract [10]: opacity of cataract was reduced
- ischemic optic neuropathy ([11]; 46 days): ischemic optic neuropath was improved
- lacrimation and dry eye ([11]; person, 100 mg/l, 1 drop (50 μl) twice a day for 46 days): lacrimation was increased, dry eye was cured
- visual fields by OCTOPUS 1-2-3 static perimeter [12]: the visual fields were improved
- visual fields [13]: visual fields were improved
- iridocyclitis outcome [14]: iridocyclitis was cured
